# In patent US20240139129A1, “NOVEL METHOD AND AGENT FOR TREATING, DIAGNOSING AND DETECTING DIABETES AND COMPLICATIONS” (Biozipcode, Inc., priority 2021, published 2024):
# Test system: diabetic patients (type 1 and type 2 diabetes mellitus)
# Assay: Research Plan 2: therapy of diabetes mellitus targeting bone marrow-derived abnormal hematopoietic stem cell in patients
# Type: in vivo, human
# Conditions: type 1 and type 2 diabetic patients, 12 weeks therapy
substance,measurement,value
insulin: insulin therapy alone for three months (control group) in the human research plan,(A) effect of eliminating abnormal hematopoietic stem cells,not eliminated
same,(B) effect of healing diabetes mellitus,not observed
same,(C) therapeutic effect on a complication,observed to some extent
